Source: article PMC5458211, “Mitochondrial VDAC1-based peptides: Attacking oncogenic properties in glioblastoma” (Oncotarget, 2017)
Non-standard residues stand in square brackets, D forms with d. Residues, ends and D or L forms follow the SMILES beside them.

How the values were obtained:
[1] = system: HK-I-GFP; assay: HK-I-GFP detachment from mitochondria by confocal microscopy, SH-SY5Y; assay type: cell-based, human; details: 7 μM, 3 h, serum-free medium, Suppl Fig 2A
Protocol: Mitochondrial VDAC1-based peptides: Attacking oncogenic properties in glioblastoma […]
Cell culture cells were fixed for 15 min using 4% paraformaldehyde prepared in PBS, rinsed with PBS, permabilized with 0.3%
Human glioblastoma U-87MG, U-118MG, CRL- PBST, and stained with DAPI (1:2000). Cell imaging was 2610 (LN-18), U-251MG, human neuroblastoma SH- carried out by confocal microscopy (Olympus 1X81).
SY5Y, mouse glioma GL-261 and mouse neuroblastoma […]
Cellular ATP levels were estimated using a luciferase-based assay (CellTiter-Glo, Promega). […] ATP levels were cytosol was analyzed by immunoblotting. […]
luminescence was recorded using an Infinite M1000 plate peptide (3, 5, 10 μM for 3h), harvested, washed with reader (Tecan, Männedorf, Switzerland). […]
ﬂuoride) containing 0.02% digitonin and incubated for Mitochondrial membrane potential (ΔΨ) was 10 min on ice. Samples were centrifuged at 12,000xg at determined using tetramethylrhodamine methylester 4°C for 10 min to obtain supernatants (cytosolic extracts (TMRM) dye. U-87MG cells (6×10^5/ml) were incubated free of mitochondria) that were analyzed by SDS-PAGE with the indicated concentrations of D-ΔN-Ter-Antp and immuno-probed using anti-hexokinase antibodies, peptide for 3 h, washed twice with PBS, incubated with and then with secondary HRP-conjugated anti-rabbit tetramethylrhodamine methyl ester (TMRM, 800 nM, antibodies. […]

[2] = system: U-87MG cells; assay: Apoptosis by acridine orange/ethidium bromide staining, U-87MG; assay type: cell-based, human; details: 3 h, mean ± SE (n=3), DMSO control 9.8 ± 5.3
Protocol: Figure 2 Mode of action of VDAC1-based peptides – interacting with- and detaching HK, releasing Cyto c, decreasing ATP level and inducing apoptosis A. Purified HK-II was fluorescently labeled using the NanoTemper protein-labeling Kit BLUE. […] Then, 3-5 μl of the samples were loaded into MST-grade glass capillaries and thermophoresis was measured using a Monolith-NT115 apparatus, as described in Materials and methods available online in Supplemental information. […] The final DMSO concentration in control and peptide-treated cells was 0.07%. Fixed cells were visualized using confocal microscopy (Olympus 1×81), as described in Materials and Methods available online in Supplemental information. Arrows indicate cells with diffusion of HK-I-GFP. C. […] Anti-GAPDH antibodies were used to verify the cytosolic extracts. The levels of HK in the supernatants were quantified and are presented as relative units. D. D-ΔN-Ter-Antp induces mitochondrial inner membrane depolarization analyzed as described in Materials and Methods available online in Supplemental information. U-87MG cells were incubated for 3 h with the indicated concentrations of D-ΔN-Ter-Antp or with FCCP (1 h, 25 μM). Cells then were analyzed for Δψ using TMRM. Δψ is presented as percentage of control. Results = mean ± SE (n=3) (*** p≤0.001, ****p ≤0.0001). […] Cellular ATP levels are presented as percentage of control. Results = mean ± SE (n=2 or 3) (* p≤0.05, ** p≤0.01). […] Release of Cyto c from the mitochondria was analyzed by immunostaining using anti-Cyto c antibodies and confocal microscopy (Olympus 1×81) as described in Materials and Methods available online in Supplemental information. Arrows indicate cells showing diffusion of Cyto c. […] Arrows and arrowheads indicate cells with membrane blebbing (early apoptotic state) and late apoptotic states, respectively. Quantification of apoptosis in control and peptide's treated cells are presented bellow the images. Results = mean ± SE (n=3) (** p≤0.01, *** p≤0.001, **** p≤0.0001).
Cells (6×10^5 /ml) were incubated in 500 μl serum-free medium with the peptide of interest for 6 h at 37°C in the presence of 5% CO2. The cells were then trypsinized, centrifuged (1500xg, 5 min), washed with PBS and analyzed for cell death using propidium iodide (PI) staining and flow cytometer (Beckton-Dickinson, San Jose, CA) and BD CellQuest Pro software. Apoptotic cell death was also analyzed by PI and annexin V-FITC staining, and by acridine orange and ethidium bromide staining and light microscopy (Olympus LX2-KSP).

`CC[C@@H](C)[C@@H](NC(=O)[C@@H](CCCCN)NC(=O)[C@H](NC(=O)[C@@H](CCC(N)=O)NC(=O)[C@@H](CCCNC(=N)N)NC(=O)[C@@H](CC(C)C)NC(=O)CNC(=O)[C@@H](Cc1ccccc1)NC(=O)CNC(=O)[C@@H](Cc1ccc(O)cc1)NC(=O)CNC(=O)[C@@H](CCCCN)NC(=O)[C@H](NC(=O)[C@@H](Cc1ccccc1)NC(=O)[C@H](NC(=O)[C@@H](CC(=O)O)NC(=O)[C@H](N)CCCNC(=N)N)C(C)C)[C@H](C)O)[C@H](C)CC)C(=O)N[C@H](Cc1c[nH]c2ccccc12)C(=O)N[C@H](Cc1ccccc1)C(=O)N[C@H](CCC(N)=O)C(=O)N[C@H](CC(N)=O)C(=O)N[C@H](CCCNC(=N)N)C(=O)N[C@H](CCCNC(=N)N)C(=O)N[C@H](CCSC)C(=O)N[C@H](CCCCN)C(=O)N[C@H](Cc1c[nH]c2ccccc12)C(=O)N[C@H](CCCCN)C(=O)N[C@H](CCCCN)C(=O)O` [D-ΔN-Ter-Antp] (H-[dR][dD][dV][dF][dT][dK]G[dY]G[dF]G[dL][dR][dQ][dI][dK][dI][dW][dF][dQ][dN][dR][dR][dM][dK][dW][dK][dK]-OH; N-terminus and C-terminus assumed) was tested, and the “HK-I-GFP detachment (fluorescence distribution)” value [1] was “became diffuse”, the “Apoptosis, %” value ([2]; 3 μM) was 45.4 ± 2.6% and the “Apoptosis, %” value ([2]; 5 μM) was 63.4 ± 3.8%.
`CC[C@H](C)[C@H](NC(=O)[C@H](C)NC(=O)[C@@H](N)Cc1c[nH]cn1)C(=O)N[C@@H](Cc1ccc(O)cc1)C(=O)N1CCC[C@H]1C(=O)N[C@@H](CCCNC(=N)N)C(=O)N[C@@H](Cc1c[nH]cn1)C(=O)N[C@@H](CO)C(=O)N[C@@H](Cc1c[nH]c2ccccc12)C(=O)N[C@H](C(=O)N[C@@H](Cc1c[nH]c2ccccc12)C(=O)N[C@@H](CCC(=O)O)C(=O)N[C@H](CCCCN)C(=O)N[C@H](CCCCN)C(=O)N[C@H](CC(C)C)C(=O)N[C@H](CCC(=O)O)C(=O)N[C@@H](C(=O)N[C@H](C)C(=O)N[C@@H](C(=O)N[C@H](CC(N)=O)C(=O)N[C@H](CC(C)C)C(=O)N[C@H](C)C(=O)N[C@H](Cc1c[nH]c2ccccc12)C(=O)N[C@@H](C(=O)N[C@H](C)C(=O)NCC(=O)N[C@H](CC(N)=O)C(=O)N[C@H](CO)C(=O)N[C@H](CC(N)=O)C(=O)N[C@@H](CCCCN)C(=O)N[C@@H](Cc1c[nH]c2ccccc12)C(=O)N[C@H](C(=O)N[C@@H](Cc1c[nH]c2ccccc12)C(=O)N[C@@H](CCCCN)C(=O)O)[C@@H](C)O)[C@H](C)O)C(C)C)[C@H](C)O)[C@@H](C)O` [Tf-D-LP4] was tested, and the “HK-I-GFP detachment (fluorescence distribution)” value [1] was “became diffuse”, the “Apoptosis, %” value ([2]; 3 μM) was 55.8 ± 1.0% and the “Apoptosis, %” value ([2]; 5 μM) was 73.9 ± 5.7%.
